One assay deals with Mapt mRNA. The assay can be described thus: Mapt mRNA expression level in the hippocampus after intraventricular administration (target gene suppression effect). It is filed as in vivo, mouse. Conditions: 7 days. How it is done:
Seven-week-old female ICR mice anesthetized with 2.5 to 4% isoflurane were fixed to a brain stereotaxic apparatus. Then, skin between the ears was cut open 2 to 3 cm anteroposteriorly, and perforated 1 mm leftward and 0.2 mm posteriorly from the bregma using a 1 mm diameter drill. A Hamilton syringe was filled with the nucleic acid agent. Through the perforated site, a needle was inserted approximately 3 mm deep. The ASO at a dose of 0.95 nmol (5 μg) per mouse was administered into the left lateral ventricle (n=4 to 7/group). The group to which ASO and TGN-073 were coadministered (hereinafter, the group is referred to as the “ASO/TGN-073 coadministration group”) means that ASO mixed with TGN-073 was administered. […]
Next, quantitative RT-PCR was performed with TaqMan (Roche Applied Science). Primers used in quantitative RT-PCR were products designed and manufactured by Thermo Fisher Scientific Inc. (formerly known as Life Technologies Corp.) on the basis of the various numbers of genes. […] The ratio of the expression amount of Malat1 RNA to the expression amount of Actb mRNA (internal standard gene) was calculated, and a value standardized with respect to the value of the PBS-treated group was determined as a relative Malat1 RNA level. […]

Assay [1] has as its system GFP expression in the central nervous system. Kind of assay: GFP expression from AAV9 vector in hippocampus-level coronal images after intraventricular administration. It is filed as in vivo. Conditions: coadministered with AAV9-CMV-hrGFP, TGN-073 250 μg/mouse, 3 weeks. How it is done:
In this Example, a GFP expression AAV9 (AAV9-CMV-hrGFP) as an adeno-associated viral (AAV) vector, alone or in combination with TGN-073 (250 μg/mouse), was administered at a dose of 26× 109 vg/mouse to the left lateral ventricle of a 7-week-old ICR mouse (female). Hereinafter, the mice to which only the AAV vector was intraventricularly administered are referred to as the “AAV single administration group”, and the mice to which the AAV vector and TGN-073 were intraventricularly administered together are referred to as the “AAV/TGN-073 coadministration group”. At 3 weeks after the intraventricular administration, the mouse was subjected to perfusion fixation using 4% paraformaldehyde. The mouse was subjected to cryoprotective treatment using a solution of 10% to 30% sucrose dissolved in PBS, and then, a cut-piece having a thickness of 40 μm was produced using a microtome. Using a fluorescence microscope (VHS-7000, Keyence Corporation), the GFP fluorescence (hippocampus-level coronal image) was captured.

As for `O=S(=O)(Nc1ncccc1OCc1ccccc1)c1ccccc1` [TGN-073, N-(3-benzyloxypyridin-2-yl)-benzene-sulfonamide], in the assay with Mapt mRNA (Example 7, coadministered with Mapt-targeting ASO of Table 6 (9.4 nmol, 50 μg), TGN-073-mes 0.125 mg/mouse per method), the “Target gene (Mapt) suppression effect in the hippocampus vs ASO single administration” value is on record as “marked enhancement”. Besides, the “Target gene (Mapt) suppression effect in the hippocampus vs ASO single administration” value in the assay with Mapt mRNA (coadministered with Mapt-targeting ASO of Table 2 (9.4 nmol, 50 μg)) was “marked augmentation”. Moreover, in assay [1], the “GFP expression amount vs AAV single administration” value is listed as “increase in the expression amount” and the “Range of GFP expression in the central nervous system vs AAV single administration” value was “significantly wide range”.
